Tests used:
Test in all cases: relative viability (nuclei count vs DMSO), 5 days (fraction); higher = more cells survive
A-427 = test system: A-427
How it was run: (§1)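 Nuclei were stained with Hoechst during a one-step fixation (final 0.05% Triton X-100, 1% formaldehyde, 1 ug/ml Hoechst) carried out 5 days after dosing, then counted on 4× images. The cells, lung cancer lines in 1536-well plates, had been dosed by pin tool the day after seeding with one drug alone or a fixed anchor-drug dose plus five library-drug doses (not always all listed) in √10 steps. Relative viability is the nuclei count in treated wells divided by that in vehicle wells, and each value is the median of duplicate plates.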

HCC-44 = test system: HCC-44
How it was run: as §1

NCI-H1623 = test system: NCI-H1623
How it was run: as §1

NCI-H1650 = test system: NCI-H1650
How it was run: as §1

NCI-H1993 = test system: NCI-H1993
How it was run: as §1

NCI-H2023 = test system: NCI-H2023
How it was run: as §1

RERF-LC-KJ = test system: RERF-LC-KJ
How it was run: as §1

SW 1573 = test system: SW 1573
How it was run: as §1

A549 = test system: A549
How it was run: as §1

Calu-6 = test system: Calu-6
How it was run: as §1

EBC-1 = test system: EBC-1
How it was run: as §1

IA-LM = test system: IA-LM
How it was run: as §1

NCI-H1299 = test system: NCI-H1299
How it was run: as §1

NCI-H1703 = test system: NCI-H1703
How it was run: as §1

Compound: COCC1(CO)C(=O)C2CCN1CC2 (centres undefined) [PRIMA-1MET] + CCNC(=O)c1noc(-c2cc(C(C)C)c(O)cc2O)c1-c1ccc(CN2CCOCC2)cc1 [Luminespib] (partner 0.01 µM)
- relative viability (A-427; first compound 0.2 µM): 1.19
- relative viability (A-427; first compound 0.6325 µM): 0.717
- relative viability (A-427; first compound 2 µM): 0.714
- relative viability (A-427; first compound 6.325 µM): 0.763
- relative viability (A-427; first compound 20 µM): 0.58
- relative viability (HCC-44; first compound 0.2 µM): 1.36
- relative viability (HCC-44; first compound 0.6325 µM): 0.964
- relative viability (HCC-44; first compound 2 µM): 0.817
- relative viability (HCC-44; first compound 6.325 µM): 1.14
- relative viability (HCC-44; first compound 20 µM): 0.896
- relative viability (NCI-H1623; first compound 0.2 µM): 0.592
- relative viability (NCI-H1623; first compound 0.6325 µM): 0.37
- relative viability (NCI-H1623; first compound 2 µM): 0.446
- relative viability (NCI-H1623; first compound 6.325 µM): 0.426
- relative viability (NCI-H1623; first compound 20 µM): 0.247
- relative viability (NCI-H1650; first compound 0.2 µM): 0.228
- relative viability (NCI-H1650; first compound 0.6325 µM): 0.212
- relative viability (NCI-H1650; first compound 2 µM): 0.185
- relative viability (NCI-H1650; first compound 6.325 µM): 0.193
- relative viability (NCI-H1650; first compound 20 µM): 0.123
- relative viability (NCI-H1993; first compound 0.2 µM): 1.04
- relative viability (NCI-H1993; first compound 0.6325 µM): 0.829
- relative viability (NCI-H1993; first compound 2 µM): 0.959
- relative viability (NCI-H1993; first compound 6.325 µM): 0.996
- relative viability (NCI-H1993; first compound 20 µM): 0.758
- relative viability (NCI-H2023; first compound 0.2 µM): 0.957
- relative viability (NCI-H2023; first compound 0.6325 µM): 0.85
- relative viability (NCI-H2023; first compound 2 µM): 0.745
- relative viability (NCI-H2023; first compound 6.325 µM): 0.685
- relative viability (NCI-H2023; first compound 20 µM): 0.642
- relative viability (RERF-LC-KJ; first compound 0.2 µM): 1.42
- relative viability (RERF-LC-KJ; first compound 0.6325 µM): 1.29
- relative viability (RERF-LC-KJ; first compound 2 µM): 1.36
- relative viability (RERF-LC-KJ; first compound 6.325 µM): 1.37
- relative viability (RERF-LC-KJ; first compound 20 µM): 1.03
- relative viability (SW 1573; first compound 0.2 µM): 0.233
- relative viability (SW 1573; first compound 2 µM): 0.214
- relative viability (SW 1573; first compound 6.325 µM): 0.0379
- relative viability (SW 1573; first compound 20 µM): 0.0227

Compound: COCC1(CO)C(=O)C2CCN1CC2 (centres undefined) [PRIMA-1MET] + COc1cc2c(Oc3ccc(NC(=O)C4(C(=O)Nc5ccc(F)cc5)CC4)cc3F)ccnc2cc1OCCCN1CCOCC1 [Foretinib] (partner 0.25 µM)
- relative viability (A-427; first compound 0.2 µM): 0.902
- relative viability (A-427; first compound 0.6325 µM): 0.837
- relative viability (A-427; first compound 2 µM): 0.895
- relative viability (A-427; first compound 6.325 µM): 0.983
- relative viability (A-427; first compound 20 µM): 0.953
- relative viability (A549; first compound 0.2 µM): 1.02
- relative viability (A549; first compound 0.6325 µM): 0.834
- relative viability (A549; first compound 2 µM): 1.07
- relative viability (A549; first compound 6.325 µM): 0.807
- relative viability (A549; first compound 20 µM): 0.894
- relative viability (Calu-6; first compound 0.2 µM): 0.918
- relative viability (Calu-6; first compound 0.6325 µM): 0.649
- relative viability (Calu-6; first compound 2 µM): 0.899
- relative viability (Calu-6; first compound 6.325 µM): 0.904
- relative viability (Calu-6; first compound 20 µM): 0.335
- relative viability (EBC-1; first compound 0.2 µM): 0.101
- relative viability (EBC-1; first compound 0.6325 µM): 0.0986
- relative viability (EBC-1; first compound 2 µM): 0.105
- relative viability (EBC-1; first compound 6.325 µM): 0.107
- relative viability (EBC-1; first compound 20 µM): 0.122
- relative viability (IA-LM; first compound 0.2 µM): 1.07
- relative viability (IA-LM; first compound 0.6325 µM): 1.12
- relative viability (IA-LM; first compound 2 µM): 1.35
- relative viability (IA-LM; first compound 6.325 µM): 1.06
- relative viability (IA-LM; first compound 20 µM): 1.07
- relative viability (NCI-H1299; first compound 0.2 µM): 1.13
- relative viability (NCI-H1299; first compound 0.6325 µM): 1.12
- relative viability (NCI-H1299; first compound 2 µM): 1.19
- relative viability (NCI-H1299; first compound 6.325 µM): 1.12
- relative viability (NCI-H1299; first compound 20 µM): 1.02
- relative viability (NCI-H1623; first compound 0.2 µM): 0.789
- relative viability (NCI-H1623; first compound 0.6325 µM): 0.819
- relative viability (NCI-H1623; first compound 2 µM): 0.744
- relative viability (NCI-H1623; first compound 6.325 µM): 0.905
- relative viability (NCI-H1623; first compound 20 µM): 0.701
- relative viability (NCI-H1650; first compound 0.2 µM): 1.45
- relative viability (NCI-H1650; first compound 0.6325 µM): 1.03
- relative viability (NCI-H1650; first compound 2 µM): 1.1
- relative viability (NCI-H1650; first compound 6.325 µM): 0.924
- relative viability (NCI-H1650; first compound 20 µM): 0.364
- relative viability (NCI-H1703; first compound 0.2 µM): 0.512
- relative viability (NCI-H1703; first compound 0.6325 µM): 0.368
- relative viability (NCI-H1703; first compound 2 µM): 0.353
- relative viability (NCI-H1703; first compound 6.325 µM): 0.388
- relative viability (NCI-H1703; first compound 20 µM): 0.0682
- relative viability (NCI-H1993; first compound 0.2 µM): 0.875
- relative viability (NCI-H1993; first compound 0.6325 µM): 0.767
- relative viability (NCI-H1993; first compound 2 µM): 0.657
- relative viability (NCI-H1993; first compound 6.325 µM): 0.803
- relative viability (NCI-H1993; first compound 20 µM): 0.754
- relative viability (NCI-H2023; first compound 0.2 µM): 1.03
- relative viability (NCI-H2023; first compound 0.6325 µM): 0.781
- relative viability (NCI-H2023; first compound 2 µM): 0.827
- relative viability (NCI-H2023; first compound 6.325 µM): 0.915
- relative viability (NCI-H2023; first compound 20 µM): 0.813
- relative viability (RERF-LC-KJ; first compound 0.2 µM): 0.872
- relative viability (RERF-LC-KJ; first compound 0.6325 µM): 0.878
- relative viability (RERF-LC-KJ; first compound 2 µM): 0.922
- relative viability (RERF-LC-KJ; first compound 6.325 µM): 0.957
- relative viability (RERF-LC-KJ; first compound 20 µM): 0.819
- relative viability (SW 1573; first compound 0.2 µM): 1.36
- relative viability (SW 1573; first compound 0.6325 µM): 0.404
- relative viability (SW 1573; first compound 2 µM): 0.777
- relative viability (SW 1573; first compound 6.325 µM): 0.485
- relative viability (SW 1573; first compound 20 µM): 0.0333

Source: the supplement of paper PMC10307832
